Literature values, collected in patent US20160253451A1, “METHOD OF USING A WATER-BASED PHARMACOPHORE” (KOREA UNIVERSITY, priority 2013, published 2016).

Molecular target: streptavidin (Streptomyces avidinii, UniProt P22629)
Conditions: streptavidin-biotin complex

Chain of streptavidin (P22629 25-183, species assumed): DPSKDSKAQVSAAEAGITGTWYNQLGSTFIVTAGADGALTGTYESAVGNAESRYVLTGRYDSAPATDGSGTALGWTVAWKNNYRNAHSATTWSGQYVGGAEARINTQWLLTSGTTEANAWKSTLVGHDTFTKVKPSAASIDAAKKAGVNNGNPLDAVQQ

O=C(O)CCCC[C@@H]1SC[C@@H]2NC(=O)N[C@@H]21 [biotin]
actual affinity: -18.3 kcal/mol
